Measured values taken from patent US12692261B2, “Substituted heterocyclic compounds and therapeutic uses thereof” (Bayer Aktiengesellschaft, priority 2020, dated 2026).

Key:
Type in all cases: biochemical
[1] = target: T1, full-length human CSNK1A1 (Homo sapiens, UniProt P48729); assay: CSNK1A1 Assay 2 (ADP-Glo, 1 μM ATP, substrate biotin-Ahx-KRRRAL-pS-VASLPGL); settings: Table 3, read-out: CSNK1A1 Assay 2 IC50 [mol/l] (median)
T1 construct: N-terminal Glutathion-S-Transferase (GST) and full-length human CSNK1A1; purchased Life Technologies PV4174; host or cells: baculovirus infected insect cells
T1 sequence (P48729 whole entry): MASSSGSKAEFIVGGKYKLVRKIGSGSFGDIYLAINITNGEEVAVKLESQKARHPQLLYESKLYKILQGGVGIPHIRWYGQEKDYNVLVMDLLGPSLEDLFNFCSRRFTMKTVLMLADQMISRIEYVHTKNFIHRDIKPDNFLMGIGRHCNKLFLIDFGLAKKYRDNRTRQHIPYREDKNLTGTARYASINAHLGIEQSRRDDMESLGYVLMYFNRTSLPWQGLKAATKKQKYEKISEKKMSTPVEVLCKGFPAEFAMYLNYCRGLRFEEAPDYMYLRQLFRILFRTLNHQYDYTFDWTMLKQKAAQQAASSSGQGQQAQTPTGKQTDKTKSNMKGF
Description: CSNK1A1-inhibitory activity of compounds of the present invention in presence of 1 μM adenosine-tri-phosphate (ATP) was quantified employing the CSNK1A1 assay as described in the following paragraphs. In essence, the enzyme activity is measured by quantification of the adenosine-di-phosphate (ADP), which is generated as a co-product of the enzyme reaction, via the “ADP-Glo™ Kinase Assay” kit from the company Promega. This detection system works as follows: In a first step the ATP not consumed in the kinase reaction is quantitatively converted to cAMP employing an adenylate cyclase (“ADP-Glo-reagent”), then the adenylate cyclase is stopped and the ADP generated in the kinase reaction converted to ATP which generates in a luciferase-based reaction a glow-luminescence signal (“Kinase Detection Reagent”).
(§1) Recombinant fusion protein of N-terminal Glutathion-S-Transferase (GST) and full-length human CSNK1A1, expressed by baculovirus infected insect cells and purified via Glutathion affinity chromatography, was purchased from Life Technologies (product no. PV4174) and used as enzyme. As substrate for the kinase reaction the biotinylated peptide biotin-Ahx-KRRRAL-pS-VASLPGL (C-terminus in amide form) was used which can be purchased e.g. from the company Biosyntan (Berlin-Buch, Germany).
For the assay 50 nl of a 100 fold concentrated solution of the test compound in DMSO was pipetted into a white 1536-well microtiter plate (Greiner Bio-One, Frickenhausen, Germany), 2 μL of a solution of CSNK1A1 in aqueous assay buffer [50 mM HEPES pH 7.5, 10% (v/v) glycerol, 10 mM MgCl2, 50 mM NaCl, 1 mM dithiothreitol, 0.01% (w/v) bovine serum albumin, 0.01% (v/v) Triton X-100] were added and the mixture was incubated for 15 min at 22° C. to allow pre-binding of the test compounds to the enzyme before the start of the kinase reaction. […] The concentration of CSNK1A1 was adjusted depending of the activity of the enzyme lot and was chosen appropriate to have the assay in the linear range, a typical concentrations are about 0.0375 ng/μL. The reaction was stopped by the addition of 2.5 μL of “ADP-Glo-reagent” (1:1.5 fold diluted with water) and the resulting mixture was incubated at 22° C. for 1 h to convert the ATP not consumed in the kinase reaction completely […]. Subsequently 2.5 μL of the “kinase detection reagent” (1.2 fold more concentrated than recommended by the producer) were added, the resulting mixture was incubated at 22° C. for 1 h and then the luminescence measured with a suitable measurement instrument (e.g. Viewlux™ from Perkin-Elmer). The amount of emitted light was taken as a measure for the amount of ADP generated and thereby for the activity of the CSNK1A1.

[2] = target: T1, full-length human CSNK1A1; assay: CSNK1A1 High ATP Assay (ADP-Glo, 1 mM ATP); settings: Table 3, read-out: CSNK1A1 high ATP assay IC50 [mol/l] (median);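 further: 30 min kinase reaction at 22 °C with 100 µM peptide substrate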
Description: CSNK1A1-inhibitory activity of compounds of the present invention in presence of 1 mM adenosine-tri-phosphate (ATP) was quantified employing the CSNK1A1-high-ATP-assay as described in the following paragraphs. In essence, the enzyme activity is measured by quantification of the adenosine-di-phosphate (ADP), which is generated as a co-product of the enzyme reaction, via the “ADP-Glo™ Kinase Assay” kit from the company Promega. This detection system works as follows: In a first step the ATP not consumed in the kinase reaction is quantitatively converted to cAMP employing an adenylate cyclase (“ADP-Glo-reagent”), then the adenylate cyclase is stopped and the ADP generated in the kinase reaction converted to ATP which generates in a luciferase-based reaction a glow-luminescence signal (“Kinase Detection Reagent”).
as §1
For the assay 50 nl of a 100 fold concentrated solution of the test compound in DMSO was pipetted into a white low volume 384-well microtiter plate (Greiner Bio-One, Frickenhausen, Germany), 2 μL of a solution of CSNK1A1 in aqueous assay buffer [50 mM HEPES pH 7.5, 10% (v/v) glycerol, 10 mM MgCl2, 50 mM NaCl, 1 mM dithiothreitol, 0.01% (w/v) bovine serum albumin, 0.01% (v/v) Triton X-100] were added and the mixture was incubated for 15 min at 22° C. to allow pre-binding of the test compounds to the enzyme before the start of the kinase reaction. […] The concentration of CSNK1A1 was adjusted depending of the activity of the enzyme lot and was chosen appropriate to have the assay in the linear range, a typical concentration is about 0.4 ng/μL. The reaction was stopped by the addition of 2.5 μL of “ADP-Glo-reagent” (1:1.5 fold diluted with water) and the resulting mixture was incubated at 22° C. for 1 h to convert the ATP not consumed in the kinase reaction completely […]. Subsequently 2.5 μL of the “kinase detection reagent” (1.2 fold more concentrated than recommended by the producer) were added, the resulting mixture was incubated at 22° C. for 1 h and then the luminescence measured with a suitable measurement instrument (e.g. Viewlux™ from Perkin-Elmer). The amount of emitted light was taken as a measure for the amount of ADP generated and thereby for the activity of the CSNK1A1.

full-length human CSNK1D = target: T2, full-length human CSNK1D (Homo sapiens, UniProt P48730); assay: CSNK1D Assay (ADP-Glo, 1 μM ATP); settings: Table 3, read-out: CSNK1D IC50 [mol/l] (median)
T2 construct: N-terminal Glutathion-S-Transferase (GST) and full-length human CSNK1D; purchased Life Technologies PV3665; host or cells: baculovirus infected insect cells
T2 sequence (P48730 whole entry): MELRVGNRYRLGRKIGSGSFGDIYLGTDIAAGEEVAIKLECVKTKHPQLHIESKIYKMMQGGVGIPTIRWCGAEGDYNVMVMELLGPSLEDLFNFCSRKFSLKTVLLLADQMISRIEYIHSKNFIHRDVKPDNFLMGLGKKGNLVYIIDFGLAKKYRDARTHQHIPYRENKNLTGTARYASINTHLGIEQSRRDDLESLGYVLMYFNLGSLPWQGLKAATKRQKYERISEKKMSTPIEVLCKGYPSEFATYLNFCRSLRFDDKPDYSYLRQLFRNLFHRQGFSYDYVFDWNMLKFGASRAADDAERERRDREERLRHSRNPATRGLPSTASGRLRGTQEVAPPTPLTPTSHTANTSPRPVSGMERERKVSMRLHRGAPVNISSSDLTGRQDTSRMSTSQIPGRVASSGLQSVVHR
Description: CSNK1D-inhibitory activity of compounds of the present invention in presence of 1 μM adenosine-tri-phosphate (ATP) was quantified employing the CSNK1 D assay as described in the following paragraphs. In essence, the enzyme activity is measured by quantification of the adenosine-di-phosphate (ADP), which is generated as a co-product of the enzyme reaction, via the “ADP-Glo™ Kinase Assay” kit from the company Promega. This detection system works as follows: In a first step the ATP not consumed in the kinase reaction is quantitatively converted to cAMP employing an adenylate cyclase (“ADP-Glo-reagent”), then the adenylate cyclase is stopped and the ADP generated in the kinase reaction converted to ATP which generates in a luciferase-based reaction a glow-luminescence signal (“Kinase Detection Reagent”).
as §1, with “CSNK1D,” for “CSNK1A1,”, “PV3665)” for “PV4174)”, “Btn-Ahx-[…]” for “biotin-Ahx-KRRRAL-pS-VASLPGL”
For the assay 50 nl of a 100 fold concentrated solution of the test compound in DMSO was pipetted into a white 1536-well microtiter plate (Greiner Bio-One, Frickenhausen, Germany), 2 μL of a solution of CSNK1D in aqueous assay buffer [50 mM HEPES pH 7.5, 10% (v/v) glycerol, 10 mM MgCl2, 50 mM NaCl, 1 mM dithiothreitol, 0.01% (w/v) bovine serum albumin, 0.01% (v/v) Triton X-100] were added and the mixture was incubated for 15 min at 22° C. to allow pre-binding of the test compounds to the enzyme before the start of the kinase reaction. […] The concentration of CSNK1D was adjusted depending of the activity of the enzyme lot and was chosen appropriate to have the assay in the linear range, a typical concentration is about 0.5 ng/μL. The reaction was stopped by the addition of 2.5 μL of “ADP-Glo-reagent” (1:1.5 fold diluted with water) and the resulting mixture was incubated at 22° C. for 1 h to convert the ATP not consumed in the kinase reaction completely […]. Subsequently 2.5 μL of the “kinase detection reagent” (1.2 fold more concentrated than recommended by the producer) were added, the resulting mixture was incubated at 22° C. for 1 h and then the luminescence measured with a suitable measurement instrument (e.g. Viewlux™ from Perkin-Elmer). The amount of emitted light was taken as a measure for the amount of ADP generated and thereby for the activity of the CSNK1D.

Which IC50 [1] does the source give for `O=C(Nc1cc(-c2[nH]c3ccc(F)nc3c2-c2ccc(F)cn2)ccn1)C(CC(F)F)c1ccc(F)cc1` (stereo not drawn) [Example 108, 4,4-difluoro-N-{4-[5-fluoro-3-(5-fluoropyridin-2-yl)-1H-pyrrolo[3,2-b]pyridin-2-yl]pyridin-2-yl}-2-(4-fluorophenyl)butanamide] here?
The IC50 was 4.55 nM.

What about the IC50 [2] of the same compound?
The IC50 was 4.55 nM.

And the IC50 (full-length human CSNK1D)?
Its IC50 is 5.93 nM.

For `Cc1cc(F)nc2c(-c3ccccn3)c(-c3ccnc(NC(=O)C(CC(F)F)c4ccc(F)cc4)c3)[nH]c12` (single isomer, unassigned; (+)) [Example 37, (+)-4,4-difluoro-N-{4-[5-fluoro-7-methyl-3-(pyridin-2-yl)-1H-pyrrolo[3,2-b]pyridin-2-yl]pyridin-2-yl}-2-(4-fluorophenyl)butanamide], which IC50 [1] is on record?
The IC50 was 3.97 nM.

And the IC50 [2]?
Its IC50 is 3.97 nM.

What about the IC50 (full-length human CSNK1D) of the same compound?
Its IC50 is 8.32 nM.

`COCCOc1cc(F)nc2c(-c3ccccn3)c(-c3ccnc(NC(=O)C(CC(F)F)c4ccc(F)cc4)c3)[nH]c12` (single isomer, unassigned) [Example 91, (2R or S)-4,4-difluoro-N-{4-[5-fluoro-7-(2-methoxyethoxy)-3-(pyridin-2-yl)-1H-pyrrolo[3,2-b]pyridin-2-yl]pyridin-2-yl}-2-(4-fluorophenyl)butanamide] was tested. Which IC50 [1] did it give?
Its IC50 is 9.57 nM.

What about the IC50 [2] of the same compound?
The IC50 was 9.57 nM.

What about the IC50 (full-length human CSNK1D) of the same compound?
Its IC50 is 23.4 nM.

What does the source list for `O=C(Nc1cc(-c2[nH]c3nc(OC(F)F)cnc3c2-c2ccccn2)ccn1)C(CC(F)F)c1ccc(F)cc1` (single isomer, unassigned) [Example 107, N-{4-[3-(difluoromethoxy)-7-(pyridin-2-yl)-5H-pyrrolo[2,3-b]pyrazin-6-yl]pyridin-2-yl}-4,4-difluoro-2-(4-fluorophenyl)butanamide]?
IC50 [1]: 64.6 nM; IC50 [2]: 64.6 nM; IC50 (full-length human CSNK1D): 117 nM

How did the IC50 [1] turn out when `O=C(Nc1cc(-c2[nH]c3nc(OC(F)F)cnc3c2-c2ccccn2)ccn1)C(CC(F)F)c1ccc(F)cc1` (single isomer, unassigned) [Example 106, N-{4-[3-(difluoromethoxy)-7-(pyridin-2-yl)-5H-pyrrolo[2,3-b]pyrazin-6-yl]pyridin-2-yl}-4,4-difluoro-2-(4-fluorophenyl)butanamide] was run?
The IC50 was 4.32 nM.

And the IC50 [2]?
The IC50 was 4.32 nM.

What about the IC50 (full-length human CSNK1D) of the same compound?
The IC50 was 6.1 nM.

For `O=C(Nc1cc(-c2[nH]c3c(OC4CC4)cc(F)nc3c2-c2ccccn2)ccn1)C(CC(F)F)c1ccc(F)cc1` (single isomer, unassigned) [Example 44, N-{4-[7-(cyclopropyloxy)-5-fluoro-3-(pyridin-2-yl)-1H-pyrrolo[3,2-b]pyridin-2-yl]pyridin-2-yl}-4,4-difluoro-2-(4-fluorophenyl)butanamide], which IC50 [1] is on record?
Its IC50 is 6.02 nM.

And the IC50 [2]?
The IC50 was 6.02 nM.

What about the IC50 (full-length human CSNK1D) of the same compound?
The IC50 was 5.31 nM.

`COCCOc1cc(F)nc2c(-c3ccccn3)c(-c3ccnc(NC(=O)C(CC(F)F)c4ccc(F)cc4)c3)[nH]c12` (single isomer, unassigned) [Example 90, (2R or S)-4,4-difluoro-N-{4-[5-fluoro-7-(2-methoxyethoxy)-3-(pyridin-2-yl)-1H-pyrrolo[3,2-b]pyridin-2-yl]pyridin-2-yl}-2-(4-fluorophenyl)butanamide] was tested. Which IC50 [1] did it give?
Its IC50 is 2.43 nM.

What about the IC50 [2] of the same compound?
Its IC50 is 2.43 nM.

And the IC50 (full-length human CSNK1D)?
Its IC50 is 2.5 nM.

Which results are given for `O=C(Nc1cc(-c2[nH]c3cc(Cl)cnc3c2-c2ccccn2)ccn1)C(CC(F)F)c1ccc(F)cc1` (stereo not drawn) [Example 87, N-{4-[6-chloro-3-(pyridin-2-yl)-1H-pyrrolo[3,2-b]pyridin-2-yl]pyridin-2-yl}-4,4-difluoro-2-(4-fluorophenyl)butanamide]?
IC50 [1]: 6.08 nM; IC50 [2]: 6.08 nM; IC50 (full-length human CSNK1D): 10.8 nM
